Experiments:
Mus musculus = experiment: Anesthetic activity in mouse model assessed as loss of righting reflex; type: functional
[1] = Toxicity in mouse; type: organism-based; conditions: in vivo
[2] = Therapeutic index, ratio of LD50 for toxicity in mouse to ED50 for anesthetic effect in mouse
Rattus norvegicus = experiment: Anesthetic activity in Sprague-Dawley rat assessed as loss of righting reflex; type: functional
[3] = Toxicity in Sprague-Dawley rat; conditions: in vivo
[4] = Therapeutic index, ratio of LD50 for toxicity in Sprague-Dawley rat to ED50 for anesthetic effect in Sprague-Dawley rat; conditions: read-out: Ratio LD50/ED50
Canis familiaris [5] = experiment: Anesthetic activity in Beagle dog assessed as onset time for loss of righting reflex at 12.5 mg/kg, administered as bolus dose; type: functional, Canis lupus familiaris
Canis familiaris [6] = experiment: Anesthetic activity in Beagle dog assessed as anesthetic duration time at 12.5 mg/kg, administered as bolus dose; type: functional, Canis lupus familiaris
Canis familiaris [7] = experiment: Anesthetic activity in Beagle dog assessed as recovery time at 12.5 mg/kg, administered as bolus dose; type: functional, Canis lupus familiaris
Sus scrofa [8] = experiment: Anesthetic activity in mini pig assessed as onset time for loss of righting reflex at 4 mg/kg, administered as bolus dose; type: functional
Sus scrofa [9] = experiment: Anesthetic activity in mini pig assessed as anesthetic duration time at 4 mg/kg, administered as bolus dose; type: functional
Sus scrofa [10] = experiment: Anesthetic activity in mini pig assessed as recovery time at 4 mg/kg, administered as bolus dose; type: functional
Canis familiaris [11] = experiment: Anesthetic activity in Beagle dog assessed as onset time for loss of righting reflex at 25 mg/kg, administered as bolus dose; type: functional, Canis lupus familiaris
Canis familiaris [12] = experiment: Anesthetic activity in Beagle dog assessed as anesthetic duration time at 25 mg/kg, administered as bolus dose; type: functional, Canis lupus familiaris
Canis familiaris [13] = experiment: Anesthetic activity in Beagle dog assessed as recovery time at 25 mg/kg, administered as bolus dose; type: functional, Canis lupus familiaris
Sus scrofa [14] = experiment: Anesthetic activity in mini pig assessed as onset time for loss of righting reflex at 5 mg/kg, administered as bolus dose; type: functional
Sus scrofa [15] = experiment: Anesthetic activity in mini pig assessed as anesthetic duration time at 5 mg/kg, administered as bolus dose; type: functional
Sus scrofa [16] = experiment: Anesthetic activity in mini pig assessed as recovery time at 5 mg/kg, administered as bolus dose; type: functional
Canis familiaris [17] = experiment: Anesthetic activity in Beagle dog assessed as onset time for loss of righting reflex at 75 mg/kg, administered as bolus dose; type: functional, Canis lupus familiaris
Canis familiaris [18] = experiment: Anesthetic activity in Beagle dog assessed as anesthetic duration time at 75 mg/kg, administered as bolus dose; type: functional, Canis lupus familiaris
Canis familiaris [19] = experiment: Anesthetic activity in Beagle dog assessed as recovery time at 75 mg/kg, administered as bolus dose; type: functional, Canis lupus familiaris
Sus scrofa [20] = experiment: Anesthetic activity in mini pig assessed as onset time for loss of righting reflex at 22.5 mg/kg, administered as bolus dose; type: functional
Sus scrofa [21] = experiment: Anesthetic activity in mini pig assessed as anesthetic duration time at 22.5 mg/kg, administered as bolus dose; type: functional
Sus scrofa [22] = experiment: Anesthetic activity in mini pig assessed as recovery time at 22.5 mg/kg, administered as bolus dose; type: functional

## C[C@@H](c1cccc([C@H](C)C2CC2)c1OCOP(=O)([O-])[O-])C1CC1.[Na+].[Na+]
Mus musculus
  ED50: 11.7 mg/kg
[1]
  LD50: 42.5 mg/kg
[2]
  Ratio LD50/ED50: 3.6
Rattus norvegicus
  ED50: 7.34 mg/kg
[3]
  LD50: 40.4 mg/kg
[4]
  selectivity ratio: 5.51
Canis familiaris [5]
  Time: 0.9 min
Canis familiaris [6]
  Time: 70.2 min
Canis familiaris [7]
  Time: 3.3 min
Sus scrofa [8]
  Time: 3 min
Sus scrofa [9]
  Time: 65.8 min
Sus scrofa [10]
  Time: 9.6 min

## CC(C)c1cccc([C@H](C)C2CC2)c1OCOP(=O)([O-])[O-].[Na+].[Na+]
Mus musculus
  ED50: 20.4 mg/kg
[1]
  LD50: 86.5 mg/kg
[2]
  Ratio LD50/ED50: 4.2
Rattus norvegicus
  ED50: 12.9 mg/kg
[4]
  selectivity ratio: 4.74
Canis familiaris [11]
  Time: 0.7 min
Canis familiaris [12]
  Time: 72.2 min
Canis familiaris [13]
  Time: 11.2 min
Sus scrofa [14]
  Time: 1.6 min
Sus scrofa [15]
  Time: 68.2 min
Sus scrofa [16]
  Time: 4.8 min

## CC(C)c1cccc(C(C)C)c1OCOP(=O)([O-])[O-].[Na+].[Na+] [FOSPROPOFOL DISODIUM]
Mus musculus
  ED50: 95 mg/kg
[1]
  LD50: 220 mg/kg
[2]
  Ratio LD50/ED50: 2.3
Rattus norvegicus
  ED50: 41 mg/kg
[3]
  LD50: 189 mg/kg
[4]
  selectivity ratio: 4.61
Canis familiaris [17]
  Time: 2.1 min
Canis familiaris [18]
  Time: 80.4 min
Canis familiaris [19]
  Time: 7.3 min
Sus scrofa [20]
  Time: 1.6 min
Sus scrofa [21]
  Time: 72.6 min
Sus scrofa [22]
  Time: 6 min

Source: ChEMBL document CHEMBL4043087 (J Med Chem, 2017)
